≈ marks a conversion by molar mass, not a printed value.
System: Neisseria gonorrhoeae, GC525 (NG-2888)
Assay: in-vitro antibacterial activity, microbroth dilution MIC susceptibility testing
Format: cell-based
Settings: Neisseria gonorrhoeae, microbroth dilution in gonococcal broth, 20-24 hours at 35 C, lowest concentration preventing visible growth, read-out: MIC
Description: The in-vitro antibacterial activity of selected compounds was determined against a stain of Neisseria gonorrhoeae, GC525 (NG-2888), which is described by Rouquette-Loughlin et al, in Journal of Bacteriology, February 2003, p. 1101-1106, at p. 1103. In general, minimum inhibitory concentration (MIC) susceptibility testing followed procedures recommended by the National Committee for Clinical Laboratory Standards (NCCLS^1-2) or followed the descriptions described below:
Neisseria gonorrhoeae strains were grown on Chocolate Agar II plates (BBL—Becton Dickinson Microbiology Systems, Cockeysville, Md.) and incubated at 35° C. in a humidified 5% CO2 incubator (Form a Scientific, Marietta Ohio). For microbroth dilution MIC testing, N. gonorrhoeae were tested in gonococcal broth (GCB):
Gram stains were also utilized. Permanent Stock Culture Collection
Bacterial stock cultures are stored as frozen suspensions at −70 C. N. gonorrhoeae cultures are suspended in inactivated Horse Serum (Colorado Serum Company, Denver, Colo.) containing 7.5% glucose prior to snap freezing in a dry ice/ethanol bath.
Preparation of Standardized Test Inocula and Plate Inoculation
Frozen stock cultures were used as the initial source of organisms for performing microbroth dilution MIC testing. Stock cultures were passed on their respective growth medium at least one growth cycle (18-24 hours) prior to their use. Bacterial culture suspensions were prepared directly from Chocolate Agar II plates into 10 mL cation-adjusted Mueller-Hinton Broth (CAMHB, BBL, # BB215069). Before use, cultures were adjusted to an optical density value of 1.6-2 on a Perkin-Elmer Lambda EZ150 Spectrophotometer (Wellesley, Mass.) set at a wavelength of 600 nm. Random cultures were plated for validation of actual colony counts. The adjusted cultures were diluted 400-fold (0.25 mL inoculum+100 mL GCB) into gonococcal broth producing a starting inoculum of approximately 5×10^5 cfu/mL. These cultures were inoculated into test plates (100 uL/well) using a Biomek® FX workstation (Beckman Coulter Inc., Fullerton, Calif.). The inoculated plates were placed in stacks of no more than 4 and covered with an empty plate. Plates were incubated for 20-24 hours at 35 C in a humidified CO2 incubator.
Test Compound (“Drug”) Preparation
Drug stock solutions (2 mg/mL in DMSO) were prepared on the day of testing. Drugs were weight corrected for assay content where necessary.
Drug Dilution Tray Preparation
Microbroth dilution stock plates were prepared in two dilution series, 64-0.06 ug drug/mL and 1-0.001 ug drug/mL. For the high concentration series, 200 uL of stock solution (2 mg/mL) was added to duplicate rows of a 96-well plate. This was used as the first well in the dilution series. Serial two-fold decremental dilutions were made using a BioMek FX robot (Beckman Coulter Inc., Fullerton, Calif.) with 10 of the remaining 11 wells, each of which contained 100 uL of the appropriate solvent/diluent. Row 12 contained solvent/diluent only and served as the control. For tube one of the low concentration series, 200 uL of a 31.25 ug/mL stock was added to duplicate rows of a 96-well plate. Serial two-fold dilutions were made as described above.
Daughter plates were spotted (3.2 uL/well) from the stock plates listed above using the BioMek FX robot and were inoculated with organism (100 uL/well) as described previously.
After incubation, the degree of growth in each well was read visually with the aid of a Test Reading Mirror (Dynatech Lab 220-16, Dynex Technologies, Chantilly, Va.). 96-well test plates are read in a darkened room with a single light shining from above. The MIC is the lowest concentration of drug that prevents macroscopically visible growth under the conditions of the test. […] If MIC values in duplicate tests differ by 1 well (two-fold), the […] value is reported. If duplicate tests vary by 2 dilutions (four-fold), the middle value is reported.

SMILES | MIC
CCNC(=O)Nc1nc2cc(-c3ccc(C(C)(C)C)cc3)cc(C(=O)NCC)n2n1 [Example 58, 7-(4-tert-Butyl-phenyl)-2-(3-ethyl-ureido)-[1,2,4]triazolo[1,5-a]pyridine-5-carboxylic acid ethylamide] | 2 µg/mL (≈ 4.9 µM)
CCNC(=O)Nc1nc2cc(-c3cccc(SC)c3)cc(C(=O)NCC)n2n1 [Example 60, 2-(3-Ethyl-ureido)-7-(3-methyl-sulfanyl-phenyl)-[1,2,4]triazolo[1,5-a]pyridine-5-carboxylic acid ethylamide] | > 16 µg/mL
CCNC(=O)Nc1nc2cc(-c3ccc(C(C)C)cc3)cc(C(=O)NCC)n2n1 [Example 61, 2-(3-Ethyl-ureido)-7-(4-isopropyl-phenyl)-[1,2,4]triazolo[1,5-a]pyridine-5-carboxylic acid ethylamide] | 2 µg/mL (≈ 5.07 µM)
CCNC(=O)Nc1nc2cc(-c3cccc(C(C)C)c3)cc(C(=O)NCC)n2n1 [Example 62, 2-(3-Ethyl-ureido)-7-(3-isopropyl-phenyl)-[1,2,4]triazolo[1,5-a]pyridine-5-carboxylic acid ethylamide] | 2 µg/mL (≈ 5.07 µM)
CCNC(=O)Nc1nc2cc(-c3ccc(F)cc3C)cc(C(=O)NCC)n2n1 [Example 63, 2-(3-Ethyl-ureido)-7-(4-fluoro-2-methyl-phenyl)-[1,2,4]triazolo[1,5-a]pyridine-5-carboxylic acid ethylamide] | 8 µg/mL (≈ 20.8 µM)
CCNC(=O)Nc1nc2cc(-c3ccc(F)cc3F)cc(C(=O)NCC)n2n1 [Example 64, 7-(2,4-Difluoro-phenyl)-2-(3-ethyl-ureido)-[1,2,4]triazolo[1,5-a]pyridine-5-carboxylic acid ethylamide] | > 64 µg/mL
CCNC(=O)Nc1nc2cc(-c3ccccc3C#N)cc(C(=O)NCC)n2n1 [Example 65, 7-(2-Cyano-phenyl)-2-(3-ethyl-ureido)-[1,2,4]triazolo[1,5-a]pyridine-5-carboxylic acid ethylamide] | 32 µg/mL (≈ 84.8 µM)
CCNC(=O)Nc1nc2cc(-c3cc(F)ccc3F)cc(C(=O)NCC)n2n1 [Example 66, 7-(2,5-Difluoro-phenyl)-2-(3-ethyl-ureido)-[1,2,4]triazolo[1,5-a]pyridine-5-carboxylic acid ethylamide] | 4 µg/mL (≈ 10.3 µM)
CCNC(=O)Nc1nc2cc(-c3cccc(Cl)c3)cc(C(=O)NCC)n2n1 [Example 67, 7-(3-Chloro-phenyl)-2-(3-ethyl-ureido)-[1,2,4]triazolo[1,5-a]pyridine-5-carboxylic acid ethylamide] | 1 µg/mL (≈ 2.59 µM)
CCNC(=O)Nc1nc2cc(-c3ccc(C)cc3)cc(C(=O)NCC)n2n1 [Example 68, 2-(3-Ethyl-ureido)-7-p-tolyl-[1,2,4]triazolo[1,5-a]pyridine-5-carboxylic acid ethylamide] | 2 µg/mL (≈ 5.46 µM)
CCNC(=O)Nc1nc2cc(-c3ccc(F)cc3)cc(C(=O)NCC)n2n1 [Example 69, 2-(3-Ethyl-ureido)-7-(4-fluoro-phenyl)-[1,2,4]triazolo[1,5-a]pyridine-5-carboxylic acid ethylamide] | 8 µg/mL (≈ 21.6 µM)
CCNC(=O)Nc1nc2cc(-c3cccc(F)c3)cc(C(=O)NCC)n2n1 [Example 70, 2-(3-Ethyl-ureido)-7-(3-fluoro-phenyl)-[1,2,4]triazolo[1,5-a]pyridine-5-carboxylic acid ethylamide] | 1 µg/mL (≈ 2.7 µM)
CCNC(=O)Nc1nc2cc(-c3ccccc3)cc(C(=O)NCC)n2n1 [Example 71, 2-(3-Ethyl-ureido)-7-phenyl-[1,2,4]triazolo[1,5-a]pyridine-5-carboxylic acid ethylamide] | 4 µg/mL (≈ 11.4 µM)
CCNC(=O)Nc1nc2cc(-c3ccccc3F)cc(C(=O)NCC)n2n1 [Example 72, 2-(3-Ethyl-ureido)-7-(2-fluoro-phenyl)-[1,2,4]triazolo[1,5-a]pyridine-5-carboxylic acid ethylamide] | 4 µg/mL (≈ 10.8 µM)
CCNC(=O)Nc1nc2cc(-c3ccccc3C)cc(C(=O)NCC)n2n1 [Example 73, 2-(3-Ethyl-ureido)-7-o-tolyl-[1,2,4]triazolo[1,5-a]pyridine-5-carboxylic acid ethylamide] | 16 µg/mL (≈ 43.7 µM)
CCNC(=O)Nc1nc2cc(-c3cccnc3)cc(C(=O)NC3CCC3)n2n1 [Example 75, 2-(3-Ethyl-ureido)-7-pyridin-3-yl-[1,2,4]triazolo[1,5-a]pyridine-5-carboxylic acid cyclobutylamide] | 2 µg/mL (≈ 5.27 µM)
CCNC(=O)Nc1nc2cc(-c3cccnc3)cc(C(=O)N(C)Cc3cc(C)no3)n2n1 [Example 76, 2-(3-Ethyl-ureido)-7-pyridin-3-yl-[1,2,4]triazolo[1,5-a]pyridine-5-carboxylic acidmethyl-(3-methyl-isoxazol-5-yl-methyl)-amide] | 8 µg/mL (≈ 18.4 µM)
CCNC(=O)Nc1nc2cc(-c3cccnc3)cc(C(=O)N3CCCC3C)n2n1 (stereo not drawn) [Example 77, 1-Ethyl-3-[5-(2-methyl-pyrrolidine-1-carbonyl)-7-pyridin-3-yl-[1,2,4]triazolo[1,5-a]pyridin-2-yl]-urea] | 1 µg/mL (≈ 2.54 µM)
CCNC(=O)Nc1nc2cc(-c3cccc4ncccc34)cc(C(=O)NCC)n2n1 [Example 78, 2-(3-Ethyl-ureido)-7-quinolin-5-yl-[1,2,4]triazolo[1,5-a]pyridine-5-carboxylic acid ethylamide] | 8 µg/mL (≈ 19.8 µM)
CCNC(=O)Nc1nc2cc(-c3ccc(OC(C)C)cc3)cc(C(=O)NCC)n2n1 [Example 80, 2-(3-Ethyl-ureido)-7-(4-isopropoxy-phenyl)-[1,2,4]triazolo[1,5-a]pyridine-5-carboxylic acid ethylamide] | > 64 µg/mL
CCNC(=O)Nc1nc2cc(-c3cccc(C#N)c3)cc(C(=O)NCC)n2n1 [Example 81, 7-(3-Cyano-phenyl)-2-(3-ethyl-ureido)-[1,2,4]triazolo[1,5-a]pyridine-5-carboxylic acid ethylamide] | 2 µg/mL (≈ 5.3 µM)
CCNC(=O)Nc1nc2cc(-c3ccccc3C(F)(F)F)cc(C(=O)NCC)n2n1 [Example 82, 2-(3-Ethyl-ureido)-7-(2-trifluoromethyl-phenyl)-[1,2,4]triazolo[1,5-a]pyridine-5-carboxylic acid ethylamide] | > 64 µg/mL
CCNC(=O)Nc1nc2cc(-c3cccnc3)cc(C(=O)N(C)C(C)c3ccncc3)n2n1 (stereo not drawn) [Example 86, 2-(3-Ethyl-ureido)-7-pyridin-3-yl-[1,2,4]triazolo[1,5-a]pyridine-5-carboxylic acid methyl-(1-pyridin-4-yl-ethyl)-amide] | 16 µg/mL (≈ 36 µM)
CCNC(=O)Nc1nc2cc(-c3cccnc3)cc(C(=O)NCc3cnccc3C(F)(F)F)n2n1 [Example 87, 2-(3-Ethyl-ureido)-7-pyridin-3-yl-[1,2,4]triazolo[1,5-a]pyridine-5-carboxylic acid(4-trifluoromethyl-pyridin-3-ylmethyl)-amide] | 8 µg/mL (≈ 16.5 µM)
CCNC(=O)Nc1nc2cc(-c3cccnc3)cc(C(=O)N(CC)Cc3ccncc3)n2n1 [Example 88, 2-(3-Ethyl-ureido)-7-pyridin-3-yl-[1,2,4]triazolo[1,5-a]pyridine-5-carboxylic acidethyl-pyridin-4-ylmethyl-amide] | 8 µg/mL (≈ 18 µM)
CCNC(=O)Nc1nc2cc(-c3cccnc3)cc(C(=O)N(C)Cc3ncccc3C)n2n1 [Example 89, 2-(3-Ethyl-ureido)-7-pyridin-3-yl-[1,2,4]triazolo[1,5-a]pyridine-5-carboxylic acid methyl-(3-methyl-pyridin-2-yl-methyl)-amide] | 8 µg/mL (≈ 18 µM)
CCNC(=O)Nc1nc2cc(-c3cccnc3)cc(C(=O)N(C)C(C)c3ccccn3)n2n1 (stereo not drawn) [Example 90, 2-(3-Ethyl-ureido)-7-pyridin-3-yl-[1,2,4]triazolo[1,5-a]pyridine-5-carboxylic acidmethyl-(1-pyridin-2-yl-ethyl)-amide] | > 64 µg/mL
